The source of these data is the pKa sets of Baltruschat and Czodrowski (2020).

Several values for one entry are separate records, joined by “and”; a condition that tells them apart may be missing. Identical values can stand only once.

For one data set the following is noted: acidic group.
`O=C1NC(=O)[C@@H]2CCCC[C@H]12` yielded a pKa of 9.72.
The same measure, in the same setting: as for `Sc1ccc2ccccc2[nH+]1`, the figure is -1.44; as for `Nc1nc(O)[nH+]c2nc[nH]c12`, 4.51.
Still for that read-out and setting: as for `CC(=O)CC=O`, the figure is 6.12; as for `[O-]N=C1/C(=N/O)CCC/C1=N\O`, 11.1.
On the same count and under the same terms, as for `Sc1cccnc1`, the figure is 7.01; as for `O=[N+]([O-])c1ccc(B(O)O)cc1`, 7.15; as for `CSc1ncnc2nc[nH]c12`, 8.74.
Consider `O=[N+]([O-])C(CO)CO`, for which the pKa was found to be 9.07.
On the same count and under the same terms, as for `O=C(O)CCP`, the figure is 4.23.
As for `Cn1nc(/N=N/O)nc1Cl`, the pKa was 5.17.
Regarding `O=C(O)[C@@]1(Cl)[C@@H]2CCC[C@@H]21`, the pKa is 3.03.
For `O=Cc1ccccc1O`, the pKa is 8.36.
Same read-out and setting: as for `O=C(O)c1cccnn1`, the figure is 3.
`Cc1cccc(C(=O)N(C)O)c1` showed a pKa of 8.52.
Same read-out and setting: as for `Cc1cccc2c1C(=O)NC2=O`, the figure is 10.5; as for `NC(=O)N/N=C/c1ncnc2nc[nH]c12`, 9.1.
Same read-out and setting: as for `Cc1nnc(NS(=O)(=O)c2ccc(O)cc2)s1`, the figure is 5.37.
The same measure, in the same setting: as for `O=C(O)c1[nH]c[nH+]c1C(=O)[O-]`, the figure is 4.27.
Consider `O=C([O-])[C@@H]1CC[C@@H](C(=O)O)[Se]1`, for which the pKa was 4.35.
`CC(=O)CC(=O)O`: the pKa turned out to be 3.09.
As for `C[n+]1ccc(C(=O)c2ccccc2)cc1`, the pKa was determined as 12.2.
The same measure, in the same setting: as for `[NH3+]CCc1cccc(O)c1`, the figure is 9.27; as for `O=C(O)c1cc2ccccc2s1`, 3.1; as for `CN1C(=S)NC(=O)C12CCCCC2`, 9.25.
Still for that read-out and setting: as for `O=C(O)Cc1ccc2ccccc2c1`, the figure is 4.26; as for `CCCCCOc1ccc(O)cc1`, 10.2.
The same measure, in the same setting: as for `COc1cc2c(cc1O)[C@H]1Cc3cc(OC)c(OC)cc3[C@H](C2)N1C`, the figure is 9.8.
In the case of `Oc1cccc2c1-c1cccc(O)c1-2`, the pKa turned out to be 8.35.
Turning to `N#CC(C#N)=NNc1ccc(Cl)cc1`, the pKa came out at 6.15.
Still for that read-out and setting: as for `O=c1[nH]c2ccccc2[nH]c1=O`, the figure is 9.67; as for `O=C(O)c1ccc(OCc2ccccc2)cc1`, 4.44.
Same read-out and setting: as for `COCC1=C(C(=O)O)CCC1`, the figure is 4.5.
The same measure, in the same setting: as for `Cc1ncc(CO)c(C)c1O`, the figure is 9.98; as for `Oc1cccc2ncccc12`, 8.54.
As for `CCCCCCCCCc1c(-c2ccccc2)nn(-c2ccccc2)c1O`, the pKa stood at 7.2.
On the same count and under the same terms, as for `O=C(O)c1ccc(Cl)cc1Cl`, the figure is 2.74.
Same read-out and setting: as for `C/C(=N\O)C(=O)c1ccccc1`, the figure is 9.25.
Same read-out and setting: as for `O/N=C/c1ccc(O)cc1O`, the figure is 8.05; as for `C[n+]1ccsc1N`, 9.65; as for `CC[NH+](CC)Cc1cc(Cl)cc(Cl)c1O`, 5.95.
With `O=S(=O)(Nc1cccc(C(F)(F)F)c1)c1ccccc1`, the pKa turned out to be 7.63.
In turn, `CCC1C(=O)C=C(C)OC1=O` (stereo unspecified) came in with a pKa of 5.3.
Still for that read-out and setting: as for `NC(=O)[C@@H]1CCCN1`, the figure is 8.82.
Still for that read-out and setting: as for `OCC[NH+](CCc1nnn[nH]1)CCc1nnn[nH]1`, the figure is 4.23; as for `O=P([O-])([O-])C([NH2+]Cc1cccnc1)c1ccccc1O` (stereo unspecified), 10.2; as for `O[n+]1ccc(OCc2ccccc2)cc1`, 1.99.
Still for that read-out and setting: as for `NS(=O)(=O)c1ccsc1C(=O)O`, the figure is 3.3; as for `O=C1c2ccccc2C(=O)C1Cc1ccccc1`, 5.9; as for `O=C(O)c1cc(-c2ccccc2)oc(=O)c1`, 3.3.
As for `CC(C)C(N)C(N)=O` (stereo unspecified), the pKa came to 8.
The same measure, in the same setting: as for `CCCCO`, the figure is 15.6.

The same data set, now with this note: basic group.
`CCOc1cccc(C(=O)N[C@@H]2C[C@H]3CC[C@@H](C2)N3Cc2ccccc2)c1OC` returned a pKa of 8.78.
Still for that read-out and setting: as for `COc1cc(S(C)=O)ccc1-c1nc2ncccc2[nH]1` (stereo unspecified), the figure is 3.91 and 3.89; as for `Sc1cccnc1`, 2.28.
As for `NCC[NH2+]Cc1ccccc1`, the pKa stood at 6.48.
Same read-out and setting: as for `C[NH2+]Cc1ccccn1`, the figure is 2.91.
`C[C@@H]1[C@@H](N)[C@H]1[NH3+]` yielded a pKa of 4.35.
Still for that read-out and setting: as for `CC(=O)Nc1cccnc1`, the figure is 4.44; as for `CC1(C)SCNC1C(=O)[O-]` (stereo unspecified), 6.34.
Same read-out and setting: as for `Cc1cnc2c(c1)c(C)c(C)c1cccnc12`, the figure is 5.34; as for `C[n+]1ccc(NN)c2ccccc21`, 2.61; as for `CN(C)CCC/N=C(\c1ccccc1)c1cccc2ccccc12`, 9.
Same read-out and setting: as for `c1c(CN2CC[NH2+]CC[NH2+]CC2)n[nH]c1CN1CCNCC[NH2+]CC1`, the figure is 6.08; as for `NC1CC1`, 9.1; as for `Oc1cccc2[nH]ncc12`, 8.65.
In the case of `NCCCNCCC[NH3+]`, the pKa turned out to be 9.72.
In turn, `CCOc1ccc2nc(/C=C/C=C/c3ccccc3)cc(N)c2c1` yielded a pKa of 9.5.
Still for that read-out and setting: as for `c1ccc(C2=NSC(N3CCOCC3)=NS2)cc1`, the figure is 8.33; as for `CCOCCn1c(CN2CCC[NH+](CCCCn3cccn3)CC2)nc2ccccc21`, 4.9.
The same measure, in the same setting: as for `NC(=O)N/N=C/c1ncnc2nc[nH]c12`, the figure is 2.1.
The same measure, in the same setting: as for `Cc1cccc(N)c1-c1c(C)cccc1N`, the figure is 3.7; as for `CC(=O)n1cnc2ccccc21`, 1.8.
`COCCN` gave a pKa of 9.67.
On the same count and under the same terms, as for `Cc1cc(N)ccc1CN`, the figure is 9.77; as for `[O-]c1ccncn1`, 8.59; as for `CN(C)c1ccc(/C=N/c2ncc3nc[nH]c3n2)cc1`, 5.26.
Same read-out and setting: as for `N#CC(C#N)=NNc1ccc(Cl)cc1`, the figure is -0.79; as for `CCCCCCNCc1ccc(C)cc1`, 10.2.
In the case of `C[Si](C)(C)OC1CN(C2CCCCC2)C1`, the pKa worked out at 9.02.
Same read-out and setting: as for `Cc1cc2cccnc2c2ncccc12`, the figure is 5.26.
Still for that read-out and setting: as for `Cc1ncc(CO)c(C)c1O`, the figure is 5.4.
Still for that read-out and setting: as for `Oc1cccc2ncccc12`, the figure is 5.2; as for `Brc1ccnc2c1ccc1cccnc12`, 4.03; as for `C[C@H]1O[C@H](O[C@H]2CC[C@H](n3ccc(N)nc3=O)O[C@@H]2C)[C@H](O)[C@@H](O)[C@@H]1N(C)C`, 7.
With `CC(C)(C)[C@]1(O)CCN2C[C@@H](c3ccccc3)c3ccccc3[C@@H]2C1`, the pKa worked out at 7.03.
As for `COc1nc2ccccc2nc1OC`, the pKa is -1.15.
Still for that read-out and setting: as for `Cc1ccc2c(c1)c1c3n2CCN=C3CCC1`, the figure is 8.57; as for `COc1ccccc1C(=O)N[C@@H]1C[C@H]2CC[C@@H](C1)N2Cc1ccccc1`, 8.88; as for `CNCCN`, 10.4.
For `CCN(CC)c1nc(N)nc(N)n1`, the pKa came out at 5.61.
Still for that read-out and setting: as for `CNCC(=O)N(C)C`, the figure is 8.86.
Same read-out and setting: as for `N[C@H]1CCCC[C@@H]1C(=O)[O-]`, the figure is 10.1.
On the same count and under the same terms, as for `c1nc[nH]n1`, the figure is 2.5.
Molecule `C[Si](C)(C)CNC1CCCCC1` returned a pKa of 11.
Consider `Nc1cccc2[nH+]cccc12`, for which the pKa is 0.97.
On the same count and under the same terms, as for `Cc1ccnc(-c2cc(C)ccn2)c1`, the figure is 5.32; as for `Nc1nc(NCCO)nc(NCCO)n1`, 5.18; as for `O=C([O-])CSc1nc2cc3c(cc2[nH]1)CCCC3`, 5.2.
For `c1ccc(CNC23OC4C5C6CC(C7C6C4C72)C53)cc1` (stereo unspecified), the pKa was determined as 7.07.
Still for that read-out and setting: as for `C[C@@H](O)[C@H](CCC=O)O[C@H]1O[C@H](C)[C@@H](N(C)C)[C@H](O)[C@H]1O`, the figure is 7.
